US9561234B2, “Methods for treating diseases of the retina” (Allergan, Inc., priority 2010, dated 2017)
Entries after “also recorded” stand apart in the source; their conditions may differ.

How the values were obtained:
[1] = system: ARPE-19 cells; assay: Cell viability assay: protection of RPE cells from tBH oxidative stress; assay type: cell-based; details: for PROTECTION (%) AT 10 uM: protection of RPEs from oxidative stress (0.3 mM tBH), ARPE-19 cells
Description: (§1) ARPE-19 cells from ATCC were grown in DEME/F12 medium supplemented with 10% Fetal Bovine Serum (FBS) and split into 96-well plates at a density of 10,000 cells per well. Cells were incubated overnight in 0.1% FBS medium before addition of compound/drug. Stocks of compounds of interest were made at different concentrations and added to ARPE-19 cells in 0.1% FBS medium for one hour.
After one hour of compound/drug pretreatment, cells were incubated with 0.3 mM tert-butyl hydroperoxide (tBH) for 3 hours followed by three times of washing and replacement with fresh drug and medium (0.1% FBS medium) for overnight. […] Error bars, SEM. n=3.

[2] = system: blue light exposed rats; assay: Blue light study: retinal thickness by optical coherence tomography; assay type: in vivo, Sprague-Dawley (SD) rats; details: IP once per day for 3 days; OCT 7-10 days post blue light; FIG. 3
Description: Drug treatment was started 2 days before blue light exposure. Animals received olanzapine IP injection once per day for 3 days and the last dosing was 1 hour before blue light exposure. Rats were dark adapted for 24 hours before they were exposed to blue light with lux intensity of ˜6-7 k for 4 hours. Right after the blue light exposure, the rats were dark adapted again for another 3 days before returning to normal room light (12-hour light/12-hour dark). Optical coherence tomography (OCT) was used to evaluate the retinal thickness change caused by blue light at 7-10 days post blue light exposure. Error bars, SEM. OS=Left Eye, OD=Right Eye.
(§2) Four to five month old Sprague-Dawley (SD) male rats were used in the following study. Drug treatment was started 2 days before blue light exposure. Animals received olanzapine IP injection once per day for 3 days and the last dosing was 1 hour before blue light exposure.
For intravitreal injection (IVT), animals received olanzapine (having the structure shown below) 1 hour before blue light exposure. For topical administration, the drug was given 24 hours (BID) and one hour (QI) before blue light exposure. Water was used for parallel control vehicle IP/IVT injection or topical administration. Rats were dark adapted for 24 hours before they were exposed to blue light with lux intensity of ˜6-7 k for 4 hours. […]

[3] = system: laser induced choroidal neovascularization in rats; assay: Choroidal neovascularization (CNV) assay, laser induced; assay type: in vivo, Brown Norway rats; details: i.p. 1 mg/kg once a day for 3 days plus intravitreal day 1, 4 & 6; 11 days after laser; FIG. 11
Description: Brown Norway rats (Charles Rivers), weighing 250-300 grams each were used in the study. Drug treatment was started 2 days prior to Laser treatment. Olanzapine was given i.p. (1 mg/kg) once a day for 3 days (day −2, −1 & 0). The last dose on day 0 was delivered about 1 hr before laser treatment. Phosphate buffered saline (PBS) was used for parallel control vehicle IP injection. On day zero of the laser procedure, rat eyes (pupil) were dilated with Tropicamide HCl HCl (1%) and Ak-dilate (10%). Rats were then anesthetized with intramuscular injection of 40 mg/ml Ketamine HCL and 12 mg/ml Xylazine HCl. The fundo's was visualized using a microscope slide coverslip with Refresh Liquigel eye drops as an optical coupling agent. For each animal, 6 laser spots in each eye (360 mW power, 0.07 sec. duration, 50 μm spot size) were made with argon laser (Coherent Inc.; Santa Clara, Ca.) concentrically at approximately equal distances around the optic disc, between every 2 retinal vessels. A single 5-ul volume of the drug (olanzapine) or PBS was injected into the vitreous cavity at day 1, 4 & 6 post-laser photocoagulation procedure. At 11 days after laser treatment, animals were sacrificed by CO2 exposure and CNV formation was assayed as described previously. […] The area of fluorescence was quantified using Metamorph image analysis software (RPI, Natick, Mass.).

[4] = system: IL-8 secretion from RPE cells (ARPE-19); assay: IL-8 assay: Poly I:C induced IL-8 secretion from RPE cells; assay type: cell-based; details: 1 ug/ml poly I:C, 24 hours; FIG. 1B
Description: as §1
After one hour of drug pretreatment, cells were incubated with 1 ug/ml polyl:C for 24 hours. The cell culture supernatant was used to measure IL-8 production with IL-8 ELISA Kit (R&D Systems, D8000C). Error bars, SEM. n=3.

[5] = system: blue light exposed rats; assay: H&E staining and immuno-histochemistry of rat ocular tissue after blue light exposure; assay type: in vivo, Sprague-Dawley rats; details: IP, 2-3 wks after blue light exposure
Description: as §2
(§3) For intravitreal injection (IVT), animals received olanzapine (having the structure shown below) 1 hour before blue light exposure. For topical administration, the drug was given 24 hours (BID) and one hour (QI) before blue light exposure. Water was used for parallel control vehicle IP/IVT injection or topical administration. Rats were dark adapted for 24 hours before they were exposed to blue light with lux intensity of ˜6-7 k for 4 hours. Right after the blue light exposure, the rats were dark adapted again for another 3 days before returning to normal room light (12-hour light/12-hour dark). Optical coherence tomography (OCT) was used to evaluate the retinal thickness change caused by blue light at 7-10 days post blue light exposure. Error bars, SEM. (FIG. 3).
Sprague-Dawley male rats 2-3 weeks after blue light exposure were euthanized with CO2 and orbits enucleated. Eyes were fixed in Davidson's fixative overnight at room temperature and transferred to 70% ethanol for 24 hrs. Further tissue processing was done by serial dehydration in 80%, 95% & 100% alcohol and Propar, followed by paraffin embedding. Whole rat eyes were transversely cut in the vertical meridian proceeding from nasal to temporal side, using a Microtome (RM2255; Leica Microsystems). Using optic nerve head as the landmark, a total of 45 serial sections with 5 microns/section were collected on 15 glass slides. Slide #s 1, 5, 10 & 15 were deparaffinized and sequentially stained using hematoxylin (nucleus) and eosin (cytoplasm) as per standard protocol to compare photoreceptor/RPE lesion between experimental groups. The rest of the slides were used to determine expressions of Rhodopsin, RPE65 and GFAP using the specific antibodies by standard immune-histochemistry techniques.

[6] = system: C57B6 mice with oxygen-induced retinopathy; assay: Oxygen-induced retinopathy (hyperoxia): retinal neovascularization; assay type: in vivo; details: gavage once daily P10 through P16; evaluated on P17; FIG. 10
Description: Litters of newborn mice and their dams were placed in a 75% oxygen chamber from P7 to P12. The chamber contained enough food and water for 5 days and was opened only to allow drug administration to the animals. The mice were returned to room air with normal oxygen content on P12. Olanzapine in water or VEH (water) was administered once daily by gavage beginning on P10 and continuing through P16. Retinal neovascularization was evaluated on P17 after 5 days of exposure of the animals to room air. Error bars, SEM.
Oxygen-induced retinopathy (OIR)/Hyperoxia was induced in C57B6 mice using the protocol reported by Smith et al. (Smith L E, Wesolowski E, McLellan A, et al. Oxygen-induced retinopathy in the mouse. Invest Ophthalmol Vis Sci. 1994; 35(1):101-111). […] Retinal neovascularization was evaluated on P17 after 5 days of exposure of the animals to room air.
Retinal neovascularization was evaluated by angiography in mice subjected to OIR as described previously (Smith L E, Wesolowski E, McLellan A, et al. Oxygen-induced retinopathy in the mouse. Invest Ophthalmol Vis Sci. 1994; 35(1):101-111). […] Quantification of retinal neovascularization was performed as described previously (Chen J, Connor K M, Aderman C M, Smith L E. Erythropoietin deficiency decreases vascular stability in mice. J Clin Invest. 2008; 118(2):526-533). […]

[7] = system: blue light exposed rats; assay: Electroretinography (ERG) assay after blue light exposure; assay type: in vivo, Sprague-Dawley (SD) rats
Description: as §2, §3
Bilateral Flash Electroretinograms were recorded in SD rats using the Espion E^2 electroretinography system. On the day of ERG, Animals were dark adapted for at least 30 minutes. Their eyes were dilated with Tropicamide HCl (1%) and Ak-dilate (10%). Prior to ERG recording, the animal was anesthetized with intramuscular injection of 40 mg/ml Ketamine HCl and 12 mg/ml Xylazine HCl, and placed onto heated platform. The ground needle was placed in the skin under the arm and the reference needle was place in the skin above the head. Retinae were stimulated using 1 cd.s/m2 flash for an average of 10 traces at 0.1 Hz. Recording filter was set at 300 Hz. ERG responses were analyzed using Espion E^2, and Microsoft excel program. The b-wave amplitude was measured from the trough of the a-wave to the peak of the b-wave, and the a-wave was measured as the difference in amplitude between recording at onset and the trough of the negative deflection. Error bars, SEM. (FIGS. 4, 8, and 9).

**Q.** `Cc1cc2c(s1)Nc1ccccc1N=C2N1CCNCC1` [Metabolite B, N-desmethyl olanzapine] was tested. Which “PROTECTION (%) AT 10 uM” value [1] did it give?
**A.** 129%

**Q.** `Cc1cc2c(s1)Nc1ccccc1N=C2N1CC[N+](C)([O-])CC1` [Metabolite A, Olanzapine-N-oxide] was tested. Which “PROTECTION (%) AT 10 uM” value [1] did it give?
**A.** 103%

**Q.** Which “PROTECTION (%) AT 10 uM” value [1] does the source give for `Clc1ccc2c(c1)N=C(N1CCNCC1)c1ccccc1N2` [n-desmethly clozapine, N-desmethyl clozapine] here?
**A.** 77%

**Q.** Which “protection of superior retinal thickness (OCT)” value [2] does the source give for `Cc1cc2c(s1)Nc1ccccc1N=C2N1CCN(C)CC1` [Olanzapine, 2-methyl-4-(4-methylpiperazin-1-yl)-10H-benzo[b]thieno[2,3-e][1,4]diazepine] here?
**A.** significantly protects

**Q.** And the “inhibition of laser induced choroidal neovascularization” value [3]?
**A.** significantly inhibits

**Q.** What about the “inhibition of Poly I:C induced IL-8 secretion from RPE cells” value [4] of the same compound?
**A.** inhibits

**Q.** What about the “protection of outer nuclear layer (H&E staining)” value ([5]; FIG. 5) of the same compound?
**A.** significantly protects

**Q.** What about the “protection from retinal rhodopsin loss (immuno-histochemistry)” value ([5]; FIG. 6) of the same compound?
**A.** significantly protects

**Q.** And the “inhibition of GFAP upregulation (immuno-histochemistry)” value ([5]; FIG. 7)?
**A.** partially inhibits

**Q.** And the “protection from RPE65 loss (immuno-histochemistry)” value ([5]; FIG. 7)?
**A.** significantly protects

**Q.** What about the “PROTECTION (%) AT 10 uM” value [1] of the same compound?
**A.** 116%

**Q.** And the “protection of RPE cells from oxidative stress (tBH) induced apoptosis / cell death” value ([1]; tBH, RPE cells, FIGS. 1A, 2)?
**A.** significantly protects in a dose responsive fashion; also recorded: protect

**Q.** What about the “attenuation of hyperoxia induced retinal neovascularization” value [6] of the same compound?
**A.** significantly attenuates

**Q.** What about the “protection of retinal a- and b-waves (ERG)” value ([7]; IP once per day for 3 days, ERG 7-10 days post blue light, FIG. 4) of the same compound?
**A.** significantly protects

**Q.** What about the “prevention of ERG alteration” value ([7]; intravitreal, 0.04, 0.2, or 1 ug/eye, 1 hour before blue light, ERG 7-10 days post, FIG. 8) of the same compound?
**A.** significantly prevents

**Q.** And the “protection of retinal a- and b-wave signals (ERG)” value ([7]; topical ocular dosing 24 hours (BID) and one hour before blue light, ERG 7-10 days post, FIG. 9)?
**A.** significantly protects
